Results taken from patent publication US5126258A (priority 1988, dated 1992).

Experiments:
Assay type in all cases: biochemical, mouse
13E10 = assay: Hydrolysis of reactant ligands by receptor 13E10; conditions: for hydrolysis by 13E10: pH 8.0, receptor/ligand uM, time h: 17 1/10, 2, 18 2/10, 24, 20 2/10, 0.33, 5 1/5, 0.33, 22 5/10, 3.5, preliminary
Experimental: (§1) ^1 Preliminary initial hydrolyses shown as the percentage of admixed
(§2) reactant ligand consumed for catalyzed and spontaneous hydrolyses. "--" =
(§3) No hydrolysis observed. "NT" = Not tried. All reactions were carried out
(§4) at pH 8.0 in a 50 mM phosphate buffer unless otherwise noted. Hydrolytic
(§5) percentages were determined by HPLC using a Hitachi model 655A12 liquid
(§6) chromatograph with a C18 Vydac 201TP54 column, except as noted below.
(§7) Mixtures of acetonitrile a nd water containing 0.1 percent trichloroaceti
(§8) acid [28:72-50:50 (v/v)] were used as elutant. Hydrolyses of Compounds 5
(§9) and 20 were assayed using fluorescence data.
(§10) ^2 Concentrations of receptor molecules (Rec.) and reactant ligands
(§11) (Lig.) in micromolar units, presuming a molecular weight of 150,000
(§12) daltons for each receptor molecule.
(§13) ^3 Reactant ligand (Lig.) used as substrate.
(§14) ^4 Time in hours that the reaction was permitted to take place.
(§15) ^5 Spontaneous hydrolytic percentages for the time period indicated.
(§16) ^6 Reaction carried out at pH 7.2 in a 50 mM phosphate buffer.

[1] = test system: eight monoclonal receptors 21G2, 7E5, 37G2, 13E10, 12C9, 44A2, 17G8 and 22F5; assay: Catalyzed hydrolysis of reactant ligands by the eight QPN1 monoclonal receptors, summary; conditions: pH 8.0
Experimental: Mice were hyperimmunized with the Compound 13-KLH conjugate over a three to four week time period. Sera were assayed in an ELISA using a Compound 13-BSA conjugate bound to microtiter plate wells as the solid-phase antigen. Cloned hybridomas were also screened using that ELISA assay.
Each of those catalyses could be inhibited by an appropriate analog-ligand. Thus, a relatively high percentage of induced monoclonal receptors was capable of catalyzing an esterolytic reaction. The reason for this relatively high percentage of useful receptors being induced is unknown, but could be due to the presence of phosphonamidate group nitrogen atom, as compared to a phosphonate oxygen atom, or to the quinoline nucleus of the analog-ligand. Those eight catalytic monoclonal receptors and the hybridomas that secrete them are identified by the laboratory designations "QPN1 7E5", "QPN1 12C9", "QPN1 13E10", "QPN1 17G8", "QPN1 21G2", "QPN1 22F5", "QPN1 37G2" and QPN1 44A2. The prefix "QPNI" is sometimes omitted herein when discussing these hybridomas and receptors.
Amide cleavage for Compounds 14 and 15 was assayed by analyzing for the production of free aminoquinaldine or aminonaphthalene by measuring the increase in the azo dye that results from derivatizing the free aminoquinaldine or aminonapthalene with a diazotization reagent.
Catalysis reactions were conducted by preparing a reaction admixture of 100 microliters (ul) total volume containing 5 micromolar (uM) monoclonal antibody, 50-75 uM amide reactant ligand substrate and a buffer described hereinafter. The buffer included in the above admixture varied depending upon the pH utilized as follows: pH 5, 10 […] sodium acetate, 10 mM sodium chloride; pH 7.2, 10 mM sodium phosphate, 0.15 molar (M) sodium chloride; pH 8.0; 50 mM sodium phosphate. The amide-containing substrates screened in this assay were added to the above admixture in 1 ul of a 100-fold concentrated stock solution of dimethyl formamide (DMF). Monoclonal antibody was added to the above admixture from a concentrated stock solution. The resulting admixture was placed into the well of a 96 well flat bottom microtiter plate (Costar, Cambridge, Mass.) and maintained in a moist vapor environment chamber at 23 degrees C. The production of aminoquinaldine or aminonaphthalene was then assayed as described below after 2,3,5, or 6 days.
The aminoquinaldine or aminonapthalene product produced by the catalyzed reaction was measured by first admixing 20 ul of 5M HCl, 80 ul acetone and 10 ul 0.5% (w/v) sodium nitrite to the reaction admixture to form a second admixture and maintaining that second admixture for 3 minutes at room temperature. Thereafter, 10 ul 2.5% (w/v) ammonium sulfamate was added to form a third admixture that was maintained for 2 minutes at room temperature. A still further 10 ul of 0.5% (w/v) N-(1-napthyl)ethylenediamine dihydrochloride was added to form a fourth admixture that was then maintained for 15 minutes at room temperature. Thereafter the resulting azo dye present in the fourth admixture was measured by absorbance spectroscopy at 540 nanometers (nm) for aminoquinaldine using a Model EL 309 Automated Microplate Reader (Bio-Tek Instruments, Winooski, Vt.).

44A2 = assay: Hydrolysis of reactant ligands by receptor 44A2; conditions: for hydrolysis by 44A2: pH 8.0, receptor/ligand uM, time h: 17 1/10, 2, 18 2/10, 24, 20 2/10, 0.33, 5 1/5, 0.33, 22 5/10, 3.5, preliminary
Experimental: as §1, §2, §3, §4, §5, §6, §7, §8, §9, §10, §11, §12, §13, §14, §15, §16

7E5 = assay: Hydrolysis of reactant ligands by receptor 7E5; conditions: for hydrolysis by 7E5: pH 8.0, receptor/ligand uM, time h: 17 1/10, 2, 18 2/10, 24, 20 2/10, 0.33, 5 1/5, 0.33, 22 5/10, 3.5, preliminary
Experimental: as §1, §2, §3, §4, §5, §6, §7, §8, §9, §10, §11, §12, §13, §14, §15, §16

37G2 = assay: Hydrolysis of reactant ligands by receptor 37G2; conditions: for hydrolysis by 37G2: pH 8.0, receptor/ligand uM, time h: 17 1/10, 2, 18 2/10, 24, 20 2/10, 0.33, 5 1/5, 0.33, 22 5/10, 3.5, preliminary
Experimental: as §1, §2, §3, §4, §5, §6, §7, §8, §9, §10, §11, §12, §13, §14, §15, §16

21G2 = assay: Hydrolysis of reactant ligands by receptor 21G2; conditions: for hydrolysis by 21G2: pH 8.0, receptor/ligand uM, time h: 17 1/10, 2, 18 2/10, 24, 20 2/10, 0.33, 5 1/5, 0.33, 22 5/10, 3.5, preliminary
Experimental: as §1, §2, §3, §4, §5, §6, §7, §8, §9, §10, §11, §12, §13, §14, §15, §16

22F5 = assay: Hydrolysis of reactant ligands by receptor 22F5; conditions: for hydrolysis by 22F5: pH 8.0, receptor/ligand uM, time h: 17 1/10, 2, 18 2/10, 24, 20 2/10, 0.33, 5 1/5, 0.33, 22 5/10, 3.5, preliminary
Experimental: as §1, §2, §3, §4, §5, §6, §7, §8, §9, §10, §11, §12, §13, §14, §15, §16

17G8 = assay: Hydrolysis of reactant ligands by receptor 17G8
Experimental: as §1, §2, §3, §4, §5, §6, §7, §8, §9, §10, §11, §12, §13, §14, §15, §16

[2] = pH 7.2, 1 uM receptor, 10 uM ligand, 2 h

O=C(Cc1ccc(NC(=O)C(F)(F)F)cc1)Oc1ccc2ccc(=O)oc2c1 [Compound 5]
hydrolysis by 13E10 (13E10): 13 percentage of reactant ligand
receptors (of eight) that catalyzed hydrolysis of the compound [1]: all of the receptors catalyzed hydrolysis
hydrolysis by 44A2 (44A2): 47 percentage of reactant ligand
hydrolysis by 7E5 (7E5): 8 percentage of reactant ligand
hydrolysis by 37G2 (37G2): 12 percentage of reactant ligand
hydrolysis by 21G2 (21G2): 43 percentage of reactant ligand
hydrolysis by 22F5 (22F5): 48 percentage of reactant ligand
hydrolysis by 17G8 (17G8; pH 8.0, receptor/ligand uM, time h: 18 2/10, 24, 20 2/10, 0.33, 5 1/5, 0.33, 22 5/10, 3.5, preliminary): 16 percentage of reactant ligand

CC(=O)Nc1ccc(CC(=O)Oc2cccc3ccccc23)cc1 [Compound 17]
hydrolysis by 13E10, pH 7.2 (13E10; [2]): 33 percentage of reactant ligand
hydrolysis by 13E10 (13E10): 32 percentage of reactant ligand
receptors (of eight) that catalyzed hydrolysis of the compound [1]: all of the receptors catalyzed hydrolysis
hydrolysis by 44A2, pH 7.2 (44A2; [2]): 19 percentage of reactant ligand
hydrolysis by 44A2 (44A2): 62 percentage of reactant ligand
hydrolysis by 7E5, pH 7.2 (7E5; [2]): 35 percentage of reactant ligand
hydrolysis by 7E5 (7E5): 30 percentage of reactant ligand
hydrolysis by 37G2, pH 7.2 (37G2; [2]): 39 percentage of reactant ligand
hydrolysis by 37G2 (37G2): 60 percentage of reactant ligand
hydrolysis by 21G2, pH 7.2 (21G2; [2]): 10 percentage of reactant ligand
hydrolysis by 21G2 (21G2): 10 percentage of reactant ligand
hydrolysis by 22F5, pH 7.2 (22F5; [2]): 16 percentage of reactant ligand
hydrolysis by 22F5 (22F5): 51 percentage of reactant ligand
hydrolysis by 17G8, pH 7.2 (17G8; [2]): 15 percentage of reactant ligand
